These are literature values, as cited in US20080114028A1, “Process for preparing polymorphic forms of solifenacin succinate” (priority 2006, published 2008).

For this data set the following is noted: at room temperature in water, glacial acetic acid, dimethylsulfoxide, and methanol.

SMILES strings stand for the structures.

As to `O=C(O[C@H]1CN2CCC1CC2)N1CCc2ccccc2[C@@H]1c1ccccc1` [Solifenacin succinate, solifenacin succinate], the solubility entry is reported as “freely soluble”.
